Assay results reported in patent publication US7211583B2, “7-azaindoles and the use thereof as therapeutic agents” (Elbion AG, priority 2003, dated 2007).

Target: phosphodiesterase 4
Test: Phosphodiesterase 4 inhibition, SPA with enzyme preparation from human PMNL
Format: biochemical
Conditions: cytosolic PDE4 from human PMNL, 0.5 μM [3H]-cAMP, 37° C., 30 minutes; read-out: PDE 4 inhibition IC50
Procedure: PDE4 activity is determined using enzyme preparations from human polymorphonuclear […] (PMNL). Human blood (buffy coats) was anticoagulated with citrate. A centrifugation at 700×g at room temperature (RT) for 20 minutes separates the platelet-rich plasma in the supernatant from the erythrocytes and leukocytes. The PMNLs for the PDE4 determination are isolated by a subsequent dextran sedimentation and in gradient centrifugation with Ficoll-Paque. After the cells have been washed twice, the erythrocytes which are still present are lysed by adding 10 ml of hypotonic buffer (155 mM NH4Cl, 10 mM NaHCO3, 0.1 mM EDTA, pH=7.4) at 4° C. within 6 minutes. The still intact PMNLs are then washed twice with PBS and lysed by ultrasound. The supernatant from a centrifugation at 4° C. and 48000×g for one hour contains the cytosolic fraction of PDE 4 and is employed for the PDE4 measurements.
The phosphodiesterase activity is assayed using a modified Amersham Pharmacia Biotech method, an SPA (scintillation proximity assay).
The reaction mixtures contain buffer (50 mM Tris-HCl (pH 7.4), 5 mM MgCl2, 100 μM cGMP), the inhibitors in variable concentrations and the appropriate enzyme preparation. The reaction is started by adding the substrate, 0.5 μM [^3H]-cAMP. The final volume is 100 μl. Test substances are made up as stock solutions in DMSO. The DMSO concentration in the reaction mixture is 1% v/v. The PDE activity is unaffected at this DMSO concentration. After the reaction has been started by adding substrate, the samples are incubated at 37° C. for 30 minutes. The reaction is stopped by adding a defined amount of SPA beads, and the samples are counted after one hour in a Beta counter. The nonspecific enzymic activity (the blank) is determined in the presence of 100 μM rolipram and subtracted from the test results. The incubation mixtures for the PDE4 assay contain 100 μM cGMP in order to inhibit any contamination by PDE 3.

Compound | IC50 [nM]
O=C(Nc1c(Cl)c[n+]([O-])cc1Cl)C(=O)c1cn(Cc2ccc(F)cc2)c2ncccc12 [Compound 3, N-(3,5-Dichloro-1-oxopyridin-4-yl)-[1-(4-fluorobenzyl)-7-azaindol-3-yl]glyoxylamide] | 8
O=C(Nc1c(Cl)c[n+]([O-])cc1Cl)C(=O)c1cn(Cc2ccc(F)cc2)c2c1ccc[n+]2[O-] [Compound 4, N-(3,5-Dichloro-1-oxopyridin-4-yl)-[1-(4-fluorobenzyl)-7-oxo-7-azaindol-3-yl]glyoxylamide] | 751
O=C(Nc1c(Cl)cncc1Cl)C(=O)c1cn(Cc2ccc(F)cc2)c2c1ccc[n+]2[O-] [Compound 1, N-(3,5-Dichloropyridin-4-yl)-[1-(4-fluorobenzyl)-7-oxo-7-azaindol-3-yl]glyoxylamide] | 52
O=C(Nc1c(Cl)cccc1Cl)C(=O)c1cn(Cc2ccccc2Cl)c2c1ccc[n+]2[O-] [Compound 2, N-(2,6-Dichlorophenyl)-[1-(2-chlorobenzyl)-7-oxo-7-azaindol-3-yl]glyoxylamide] | 48
